# Literature values as cited in patent publication US10183097B2, “Engineered cardiac derived compositions and methods of use” (THE JOHNS HOPKINS UNIVERSITY, priority 2013, dated 2019).
# Tested on: NRVM
# Settings: inventors' previous NRVM study with myofibroblasts; agent added separately
Structure (SMILES),electrophysiological suppression of conduction,severity of arrhythmia
[Gd] [gadolinium],relieved the electrophysiological suppression of conduction,reduced the severity of arrhythmia
[H]/N=C(/N)N[C@H]1[C@H](O)[C@@H](O)[C@H](O[C@@H]2O[C@@H](C)[C@](O)(C=O)[C@H]2O[C@@H]2O[C@@H](CO)[C@H](O)[C@@H](O)[C@@H]2NC)[C@@H](N/C(N)=N\[H])[C@@H]1O [streptomycin],relieved the electrophysiological suppression of conduction,reduced the severity of arrhythmia
Cc1ccc2c(c1)C(=O)C1(O)CCN(c3ccccc3)C1=N2 (stereo not drawn) [blebbistatin],relieved the electrophysiological suppression of conduction,reduced the severity of arrhythmia
